Experimental findings from patent US12427144B2, “Compounds and methods for the targeted degradation of androgen receptor” (Arvinas Operations, Inc., priority 2019, dated 2025) are described below.

Each structure is given as a SMILES string.

In the assay the target is T1, androgen receptor (Homo sapiens, UniProt P10275).
T1 construct: endogenous in cells; host or cells: VCaP
T1 sequence (P10275 1-920): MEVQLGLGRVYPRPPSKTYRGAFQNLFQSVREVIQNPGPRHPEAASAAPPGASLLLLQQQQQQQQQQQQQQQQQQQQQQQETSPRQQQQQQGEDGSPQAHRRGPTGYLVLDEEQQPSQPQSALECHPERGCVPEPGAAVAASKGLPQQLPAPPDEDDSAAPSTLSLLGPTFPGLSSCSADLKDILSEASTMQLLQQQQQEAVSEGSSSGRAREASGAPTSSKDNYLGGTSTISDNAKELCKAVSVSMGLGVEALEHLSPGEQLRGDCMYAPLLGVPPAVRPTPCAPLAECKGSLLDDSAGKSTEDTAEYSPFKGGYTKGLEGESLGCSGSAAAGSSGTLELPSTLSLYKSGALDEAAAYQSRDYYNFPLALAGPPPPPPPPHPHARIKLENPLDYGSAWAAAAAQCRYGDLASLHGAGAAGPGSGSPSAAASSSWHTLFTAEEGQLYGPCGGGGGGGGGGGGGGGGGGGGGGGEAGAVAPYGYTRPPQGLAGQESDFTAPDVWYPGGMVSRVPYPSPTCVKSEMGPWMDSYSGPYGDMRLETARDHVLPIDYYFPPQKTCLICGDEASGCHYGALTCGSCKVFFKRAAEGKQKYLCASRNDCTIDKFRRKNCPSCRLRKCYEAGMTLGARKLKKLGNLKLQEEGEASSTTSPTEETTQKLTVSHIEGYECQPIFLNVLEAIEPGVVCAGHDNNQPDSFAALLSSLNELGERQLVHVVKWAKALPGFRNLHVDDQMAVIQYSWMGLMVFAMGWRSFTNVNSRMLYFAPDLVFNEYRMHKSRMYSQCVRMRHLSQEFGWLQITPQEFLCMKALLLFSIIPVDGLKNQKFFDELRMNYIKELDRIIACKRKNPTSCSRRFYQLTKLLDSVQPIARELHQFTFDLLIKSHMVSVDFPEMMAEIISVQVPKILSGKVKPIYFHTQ
Nature of the assay: AR ELISA assay (PathScan AR Sandwich ELISA), VCaP cells. To be noted: drug treatment 5 hours. Format: cell-based. The procedure:
Compounds were evaluated in this assay in LNCaP and/or VCaP cells utilizing similar protocols. The protocols used with VCaP cells are described below. The androgen receptor ELISA assay was performed using PathScan AR Sandwich ELISA (Cell Signaling Catalog #12850) according to the following assay steps:
VCaP cells were seeded at 40,000 cells/well at a volume of 100 μL/well in VCaP assay medium [Phenol red free RPMI (Gibco Cat #11835-030); 5% Charcoal Stripped (Dextran treated) FBS (Omega Scientific, Cat #FB-04); 1% penstrep (Life Technologies, Gibco Cat #: 10378-016)] in Corning 3904 plates. The cells were incubated for a minimum of 3 days. Cells were dosed with PROTACs diluted in 0.01% DMSO and the drug treatment was allowed for 5 hours.
AR ELISA (Cell Signaling) was performed as follows. 1× Cell Signaling Cell lysis buffer was made (Catalogue #9803; comes with the kit). Media from the treated wells is aspirated, and 100 μL 1× cell lysis buffer/well is added. The cells were placed on a shaker for 10 minutes at 4° C. Twenty microliters of lysate was transferred to 100 μl of Diluent in ELISA plate (0.15 μg/ml-[…]). The lysate-diluent mixture was shaken for 30 minutes at 37° C. Allow mouse AR antibody, anti-mouse antibody, TMB, and STOP solution to come to room temperature. The 1×ELISA buffer included in kit was made and loaded in the reservoir. Media from the plates was discarded, the ELISA plate tapped hard on paper towel, and washed 4×200 μl ELISA wash buffer using a plate washer.
One-hundred (100) […] of mouse AR detection Ab was added; the plates were covered and shaken at 37° C. for 1 hour; media was discarded from the plates, the plates were tapped on a paper towel, washed 4× with 200 μL ELISA wash buffer with a plate washer.
One-hundred (100) […] of anti-mouse—HRP conjugated Ab (comes with the kit) was added; the plates were covered and shaken at 37° C. for 30 minutes; the TMB reagent was allowed to come to room temperature; the media was discard from the plate, the plates were tapped on paper towel, washed 4× with 200 μL of ELISA wash buffer; the plates were tapped the plates on paper towel. One-hundred (100) L of TMB was added and the plates shaken for 2 minutes—while watching for color development. One-hundred (100) L Stop solution was added when light blue color developed. Plates were shaken and read at 450 nm.
Progression of prostate cancer in patients treated with anti-androgen therapy usually involves one of several mechanisms of enhanced Androgen Receptor (AR) signaling, including increased intratumoral androgen synthesis, increased AR expression and AR mutations. PROTACs (PROteolysis TArgeting Chimera), which use bi-functional molecules that simultaneously bind a target of choice and an E3 ligase, cause ubiquitination via induced proximity and degradation of the targeted, pathological protein. As opposed to traditional target inhibition, which is a competitive process, degradation is a progressive process. As such, it is less susceptible to increases in endogenous ligand, target expression, or mutations in the target. Thus, this technology appears to be ideal for addressing the mechanisms of AR resistance in patients with prostate cancer. Data was analyzed and plotted using GraphPad Prism software.
A general note: In an ELISA, binding on a coated surface is turned into a signal by an enzyme label.

As for `Cc1cc(O[C@H]2C(C)(C)[C@H](NC(=O)c3cnc(N4CCC(CN(C(C)C)[C@H]5C[C@H](Oc6cccc(C(=O)NC7CCC(=O)NC7=O)c6)C5)CC4)cn3)C2(C)C)cc(C)c1C#N` (stereo partly shown) [Compound 15, 5-(4-[[(propan-2-yl)[(1r,3r)-3-[3-[(2,6-dioxopiperidin-3-yl)carbamoyl]phenoxy]cyclobutyl]amino]methyl]piperidin-1-yl)-N-[(1r,3r)-3-(4-cyano-3,5-dimethylphenoxy)-2,2,4,4-tetramethylcyclobutyl]pyrazine-2-carboxamide], the DC50 is 1 to 10 nM and the Dmax was less than 50%.

As for `CC(C)N(CC1CCN(c2cnc(C(=O)N[C@H]3C(C)(C)[C@H](Oc4ccc(C#N)c(Cl)c4)C3(C)C)cn2)CC1)[C@H]1C[C@H](Oc2ccc(C(=O)NC3CCC(=O)NC3=O)cc2)C1` (stereo partly drawn) [Compound 16, N-((1R,3R)-3-(3-chloro-4-cyanophenoxy)-2,2,4,4-tetramethylcyclobutyl)-5-(4-((((1R,3R)-3-(4-((2,6-dioxopiperidin-3-yl)carbamoyl)phenoxy)cyclobutyl)(isopropyl)amino)methyl)piperidin-1-yl)pyrazine-2-carboxamide], the DC50 was in the range of 1 to 10 nM and the Dmax was less than 50%.
